# Columns and labels:
# [1] = Physicochemical properties: stability
# [2] = target: N-acetylglucosamine-1-phosphate uridyltransferase (GlmU) (Escherichia coli, UniProt P0ACC7); experiment: GlmU inhibition, biochemical test (384-plate format, DTNB, absorption at 405 nm); set-up: species or system bacterial; conditions: 60 minutes of incubation at 30° C.; read-out: inhibition constant, IC50, inhibitory effect on the enzyme GlmU
# Procedure: The inhibition of the GlmU can be determined in a biochemical test using the following method:
# The assay was carried out in a 384-plate format. The reaction volume was 40 μl per test. The reaction mixture contained 10 μl of test substance and 15 μl of substrate solution consisting of acetylCoA and D-glucosamine-1-phosphate. The enzyme reaction was started by adding 15 μl of GlmU enzyme solution. After 60 minutes of incubation at 30° C., the reaction was stopped by adding 10 μl of developer reagent (DTNB dissolved in guanidine). The plates were then centrifuged (1 min, 1000 rpm) and stored for a further 45 minutes at room temperature before the absorption was read at 405 nm in a photometer. In order to be able to calculate the inhibitory activity of the test compounds, positive controls (signal with GlmU) and negative controls (signal without GlmU) were included on each plate. In order to exclude falsely positive samples, which could be caused by nonspecific substance effects (e.g. color), blank plates, which contained the substances but no GlmU, were included in parallel with the test plates. After correction for the blanks, the inhibitory activities of the substances were calculated in accordance with the following formula: Inhibition(%)=100×[1−(OD405 nm substance/OD405 nm positive control)]
# [3] = Physicochemical properties: solubility; conditions: organic solvents
# N-acetylglucosamine-1-phosphate uridyltransferase (GlmU), sequence (P0ACC7 whole entry): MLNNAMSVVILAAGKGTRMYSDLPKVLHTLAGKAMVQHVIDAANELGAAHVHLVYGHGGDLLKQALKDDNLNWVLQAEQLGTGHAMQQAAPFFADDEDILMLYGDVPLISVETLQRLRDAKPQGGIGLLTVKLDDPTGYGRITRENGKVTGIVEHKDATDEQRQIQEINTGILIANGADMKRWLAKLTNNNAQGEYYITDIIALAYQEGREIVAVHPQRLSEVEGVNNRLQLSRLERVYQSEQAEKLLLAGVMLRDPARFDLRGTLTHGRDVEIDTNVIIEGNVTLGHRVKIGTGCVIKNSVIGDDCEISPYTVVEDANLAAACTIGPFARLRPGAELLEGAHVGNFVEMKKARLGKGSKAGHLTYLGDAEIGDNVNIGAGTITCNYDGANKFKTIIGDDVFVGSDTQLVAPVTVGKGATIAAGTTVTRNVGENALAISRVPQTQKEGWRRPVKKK
structure (smiles),measurement,setting,value
Cc1c(O)c(O)c(O)c(C=O)c1-c1cc2c(C=O)c(C)c(O)c(O)c2o1 [(II)],stability,[1]; neutral and mildly acid medium,Stable in neutral and mildly acid medium
same,stability,"[1]; strongly acidic and alkaline solutions, under the influence of oxygen",unstable in strongly acidic and alkaline solutions and under the influence of oxygen
same,IC50,[2],1000 nM
same,solubility,[3],soluble in medium-polar and polar organic solvents

# — US7148254B2, “2-Phenylbenzofuran derivatives, a process for preparing them, and their use” (Sanofi-Aventis Deutschland GmbH, priority 2003, dated 2006)
